These results are taken from patent EP4268823A1, “COMPOUND FOR TREATING NEUROINFLAMMATION” (Universitätsklinikum Hamburg-Eppendorf, priority 2022, dated 2023).

Structures are written as SMILES.

In one experiment the test system is anti-ferroptotic genes. Description: qPCR of ferroptosis-related genes in sorted spinal cord neuronal nuclei of EAE mice. As to conditions: EAE + UNC0642 vs. EAE. It is filed as in vivo, mouse. On the technique in general: Quantitative PCR measures a nucleic acid by following its amplification.
The target in another experiment is T1, G9a (Homo sapiens, UniProt Q96KQ7).
T1 construct: H3K9me2 immunostaining and quantification in response to ferroptosis induction with erastin in hiPSC neurons; endogenous in cells; host or cells: neurons differentiated from human iPSCs (ZIPi013-B)
T1 sequence (Q96KQ7 1-1210): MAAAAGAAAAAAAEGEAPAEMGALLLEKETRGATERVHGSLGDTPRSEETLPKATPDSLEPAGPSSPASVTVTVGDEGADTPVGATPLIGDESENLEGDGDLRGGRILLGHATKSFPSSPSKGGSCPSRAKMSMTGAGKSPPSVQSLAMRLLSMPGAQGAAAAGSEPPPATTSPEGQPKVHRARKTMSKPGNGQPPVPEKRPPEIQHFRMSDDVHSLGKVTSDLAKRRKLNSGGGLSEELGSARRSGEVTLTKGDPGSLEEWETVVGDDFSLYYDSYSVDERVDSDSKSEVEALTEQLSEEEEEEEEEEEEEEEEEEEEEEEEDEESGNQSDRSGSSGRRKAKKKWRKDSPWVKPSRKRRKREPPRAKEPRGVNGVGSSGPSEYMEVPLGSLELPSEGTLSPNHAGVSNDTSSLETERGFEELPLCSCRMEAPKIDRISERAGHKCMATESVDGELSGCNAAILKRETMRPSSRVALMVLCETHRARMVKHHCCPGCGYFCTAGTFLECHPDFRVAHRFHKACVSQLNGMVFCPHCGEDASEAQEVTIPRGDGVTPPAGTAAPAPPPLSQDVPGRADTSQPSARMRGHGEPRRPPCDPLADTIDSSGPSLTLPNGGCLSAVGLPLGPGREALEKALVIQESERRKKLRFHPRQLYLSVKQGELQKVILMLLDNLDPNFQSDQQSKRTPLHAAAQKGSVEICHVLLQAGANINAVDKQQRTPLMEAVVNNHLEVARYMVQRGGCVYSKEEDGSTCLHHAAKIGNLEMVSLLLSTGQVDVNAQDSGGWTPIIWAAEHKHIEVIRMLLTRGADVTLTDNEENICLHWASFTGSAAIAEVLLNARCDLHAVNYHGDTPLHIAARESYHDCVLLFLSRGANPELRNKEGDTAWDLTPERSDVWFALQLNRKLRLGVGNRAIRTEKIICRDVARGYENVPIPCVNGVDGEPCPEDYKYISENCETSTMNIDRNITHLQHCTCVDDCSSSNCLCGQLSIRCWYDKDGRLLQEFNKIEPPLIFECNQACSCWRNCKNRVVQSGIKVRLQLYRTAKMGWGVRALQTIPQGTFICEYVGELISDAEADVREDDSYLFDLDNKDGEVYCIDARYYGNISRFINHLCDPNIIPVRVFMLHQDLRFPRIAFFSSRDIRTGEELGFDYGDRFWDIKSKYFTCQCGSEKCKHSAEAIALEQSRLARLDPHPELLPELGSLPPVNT
Description: H3K9me2 immunostaining in hiPSC neurons after erastin. The format is cell-based. Particulars: erastin + UNC0642. An excerpt:
Human iPSCs (ZIPi013-B) (83) were maintained under feeder-free conditions on Matrigel (Corning)-coated plates in mTeSR1 medium (Stem Cell Technologies, cat. no. 85850). For neuronal induction, iPSCs were dissociated with Accutase and seeded at a density of 3 × 10^6 cells per well on AggreWell800 plates (10,000 cells per embryoid body (EB), Stem Cell Technologies) in SMADi Neural Induction Medium (SMADi NIM, Stem Cell Technologies, cat. no. 08582) supplemented with […] (Stem Cell Technologies, cat. no. 72302). On day 6, EBs were harvested and cultivated on Matrigel-coated plates in SMADi NIM for 12 days. Newly formed neural rosettes were manually picked and cultured for another 4 days. In order to release neural precursor cells (NPCs), neural rosettes were dissociated with Accutase and were maintained for several passages at high density in Neural Progenitor Medium (Stem Cell Technologies, cat. no. 05833) on Matrigel-coated plates. HiPSC-derived NPCs were differentiated into neurons as previously described (84, 85) with some modifications. Briefly, NPCs were seeded at a density of 1 × 10^5 cells per cm^2 in Neural Progenitor Medium onto Matrigel-coated plates. […]
Immunocytochemistry was performed as described previously (15). […] Immunostainings were analyzed with a Zeiss LSM 700 confocal microscope.

In the case of `COc1cc2c(NC3CCN(C(C)C)CC3)nc(N3CCC(F)(F)CC3)nc2cc1OCCCN1CCCC1` [UNC0642, 2-(4,4-difluoropiperidin-1-yl)-6-methoxy-N-[1-(propan-2-yl)piperidin-4-yl]-7-[3-(pyrrolidin-1-yl)propoxy]quinazolin-4-amine], in the experiment on anti-ferroptotic genes, the “mRNA expression of Cbs” value is reported as “significantly boosted the expression”, the “mRNA expression of Gclc” value is “significantly boosted the expression”, the “mRNA expression of Gpx4” value is given as “significantly boosted the expression” and the “mRNA expression of Nfe212” value is reported as “significantly boosted the expression”. The “mRNA expression of multiple glutathione S-transferases” value in the experiment on anti-ferroptotic genes is reported as “derepression”. The “increase of H3K9me2 levels in response to erastin-induced ferroptosis” value on G9a is on record as “rescued”.
